Patent US5089623A, “Certain imidate insecticides” (Imperial Chemical Industries Plc, priority 1990, dated 1992)

What was measured:
Format in all cases: in vivo
[1] = test system: Maize weevil [Sitophilus Zeamais (Motschulsky)]; assay: Maize weevil test (MW); settings: adult weevils, treated corn seeds, 48 hours, percent in solution
Summary of the method: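 Adult weevils (10) were placed with four corn seeds that had been dipped 2-3 s in compound dissolved in 50:50 acetone:water, then dried, and held at about 25° C. Mortality was scored at 48 h. LC50 was taken from dosage-mortality curves and expressed as percent compound in solution, from a 0.01% top concentration.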

[2] = test system: Housefly [Musca domestica]; assay: Housefly insecticidal test (HF); settings: per 25 female houseflies, 48 hours
[3] = test system: Cabbage Looper [Trichoplusia ni (Hubner)]; assay: Cabbage looper test (CL); settings: second-instar larvae, 3-5 days, percent in solution
[4] = test system: Tobacco Budworm [Heliothis virescens (Fabricius)] eggs; assay: Tobacco budworm egg test (TBW-E); settings: percent in solution

| Structure (SMILES) | LC50 MW [1] | LC50 HF [2] | LC50 CL [3] | LC50 TBW E [4] |
| --- | --- | --- | --- | --- |
| CC(C)C(=Nc1ccc(I)c(Cl)c1)OCc1cccc(Oc2ccc(F)cc2)c1 [Compound 374] | > 0.01% | < 100 µg | 0.00058% | 0.02% |
| Cc1cc(N=C(OCc2cccc(Oc3ccc(Cl)cc3)c2)C(C)C)ccc1F [Compound 397] | > 0.01% | < 100 µg | 0.0019% | < 0.1% |
| CC(C)C(=Nc1ccc(F)c(Cl)c1)OCc1cccc(Oc2cccc(Cl)c2)c1 [Compound 203] | > 0.01% | 43 µg | 0.0025% | 0.06% |
| CC(C)C(=Nc1ccc(C(C)(C)C)cc1)OCc1ccc(F)c(Oc2ccc(Cl)cc2)c1 [Compound 301] | > 0.01% | > 100 µg | 0.008% | > 0.1% |
| CC(C)C(=Nc1cccc(F)c1)OCc1ccc(F)c(Oc2ccc(F)cc2)c1 [Compound 342] | > 0.01% | 4.1 µg | 0.0008% | 0.04% |
| Fc1ccc(COC(=Nc2ccc(C(F)(F)F)cc2)C2CC2)cc1Oc1ccccc1 [Compound 443] | < 0.01% | < 100 µg | 0.00015% | 0.017% |
| Fc1ccc(Oc2cccc(COC(=Nc3ccc(F)c(Cl)c3)C3CC3)c2)cc1 [Compound 116] | > 0.01% | 15 µg | 0.00025% | 0.05% |
| CC(C)C(=Nc1cccc(C(F)(F)F)c1)OCc1cc(Oc2ccccc2)ccn1 [Compound 506] | > 0.01% | 40 µg | 0.005% | > 0.1% |
| CC(C)C(=Nc1ccc(C#N)cc1)OCc1ccc(F)c(Oc2ccc(F)cc2)c1 [Compound 394] | > 0.01% | < 100 µg | 0.00025% | 0.05% |
| CC(C)C(=Nc1ccc(F)c(Br)c1)OCc1cccc(Oc2ccc(Cl)cc2)c1 [Compound 398] | > 0.01% | < 100 µg | < 0.1% | < 0.1% |
| CC(C)C(=Nc1cccc(C(F)(F)F)c1)OCc1ccnc(Oc2ccc(F)cc2)c1 [Compound 508] | > 0.01% | > 100 µg | 0.013% | > 0.1% |
| CC(C)C(=Nc1ccc(OCC(F)(F)F)cc1)OCc1ccc(F)c(Oc2ccccc2)c1 [Compound 422] | > 0.01% | < 100 µg | 0.00075% | 0.05% |
| CC(C)C(=Nc1ccc2c(c1)OCO2)OCc1coc(Cc2ccccc2)c1 [Compound 483] | > 0.01% | 6 µg | 0.001% | 0.05% |
| CC(C)C(=Nc1cccc(C(F)(F)F)c1)OCc1ccnc(Oc2ccccc2)c1 [Compound 507] | > 0.01% | 93 µg | 0.002% | > 0.1% |
| CC(C)C(=Nc1ccc(F)c(I)c1)OCc1ccc(F)c(Oc2ccccc2)c1 [Compound 334] | > 0.01% | 9 µg | 0.0007% | 0.013% |
| CC(C)C(=Nc1ccc(OC(F)(F)C(F)Cl)cc1)OCc1cccc(Oc2ccccc2)c1 (centres unmarked) [Compound 418] | > 0.01% | > 100 µg | > 0.1% | > 0.1% |
| COc1ccc(N=C(OCc2ccc(F)c(Oc3ccccc3)c2)C(C)C)cc1Cl [Compound 409] | > 0.01% | < 100 µg | 0.0017% | 0.025% |
| Cc1ccc(N=C(OCc2ccc(F)c(Oc3ccc(Cl)cc3)c2)C(C)C)cc1Cl [Compound 404] | > 0.01% | < 100 µg | > 0.1% | 0.025% |

| Structure (SMILES) | LC50 MW [1] | LC50 HF [2] | LC50 CL [3] | LC50 TBW E [4] |
| --- | --- | --- | --- | --- |
| Clc1ccc(N=C(OCc2cccc(Oc3ccccc3)c2)C2CCC2)cc1 [Compound 8] | > 0.01% | 50 µg | 0.01% | > 0.01% |
| CC(C)C(=Nc1ccc(Br)c(F)c1)OCc1cccc(Oc2ccc(Cl)cc2)n1 [Compound 551] | > 0.01% | < 100 µg | 0.00075% | 0.035% |
| COc1ccc(Oc2cccc(COC(=Nc3ccc(C(C)(C)C)cc3)C(C)C)c2)cc1 [Compound 345] | > 0.01% | > 100 µg | 0.018% | > 0.1% |
| CC(C)C(=Nc1ccc(Cl)c(C(F)(F)F)c1)OCc1cccc(Oc2ccccc2)n1 [Compound 555] | > 0.01% | < 100 µg | 0.002% | > 0.1% |
| CC(C)C(=Nc1ccc(Br)cc1)OCc1coc(Cc2ccccc2)c1 [Compound 478] | > 0.01% | 15 µg | 0.0037% | > 0.1% |
| CC(C)C(=Nc1ccc(F)cc1F)OCc1coc(Cc2ccccc2)c1 [Compound 486] | > 0.01% | 15 µg | > 0.1% | > 0.1% |
| CC(C)C(=Nc1ccc(OC(F)(F)F)cc1)OCc1cccc(Oc2ccccc2)n1 [Compound 550] | > 0.01% | < 100 µg | 0.00034% | > 0.1% |
| C=C(C)C(=Nc1ccc(F)c(Cl)c1)OCc1ccc(F)c(Oc2ccc(Cl)cc2)c1 [Compound 415] | > 0.01% | < 100 µg | 0.00075% | 0.035% |
| CCOc1ccc(N=C(OCc2cccc(Oc3ccccc3)c2)C(C)C)cc1 [Compound 371] | > 0.01% | < 100 µg | 0.0022% | > 0.1% |
| CC(C)C(=Nc1ccc(Cl)c(C(F)(F)F)c1)OCc1ccc(F)c(Oc2ccc(F)cc2)c1 [Compound 340] | 0.0069% | 34 µg | 0.00037% | 0.04% |
| CC(C)C(=Nc1ccc(F)c(Cl)c1)OCc1ccnc(Oc2ccc(F)cc2)c1 [Compound 511] | > 0.01% | 89 µg | 0.0012% | > 0.1% |
| CCc1ccc(N=C(OCc2cccc(Oc3ccc(Cl)cc3)n2)C(C)C)cc1 [Compound 552] | > 0.01% | > 100 µg | 0.0016% | > 0.1% |
| CCOc1ccc(N=C(OCc2ccc(F)c(Oc3ccccc3)c2)C(C)C)cc1F [Compound 439] | > 0.01% | > 100 µg | 0.00045% | > 0.1% |
| CC(C)C(=Nc1ccc(F)c(Br)c1)OCc1ccc(F)c(Oc2ccccc2)c1 [Compound 299] | > 0.01% | 8 µg | 0.0005% | 0.017% |
| Cc1cc(N=C(OCc2ccc(F)c(Oc3ccccc3)c2)C(C)C)ccc1F [Compound 400] | > 0.01% | < 100 µg | 0.0007% | 0.025% |
| Cc1cc(N=C(OCc2ccc(F)c(Oc3ccc(F)cc3)c2)C(C)C)ccc1F [Compound 396] | > 0.01% | < 100 µg | 0.0017% | < 0.1% |
| CC(C)C(=Nc1ccc(S(C)(=O)=O)cc1)OCc1ccc(F)c(Oc2ccc(F)cc2)c1 [Compound 414] | > 0.01% | < 100 µg | 0.0024% | > 0.1% |
